Test results published in publication PMC4912613, “A broad analysis of resistance development in the malaria parasite” (Nature Communications, 2016).
Like-named read-outs stand apart in the source and are kept apart here.

Assays:
[1] = test system: Stage 5 gametocytes from P. falciparum NF54; experiment: Late-stage (stage V) gametocyte survival assay, MitoTracker; type: cell-based, Plasmodium falciparum; settings: for EC50: Plasmodium falciparum, P. falciparum NF54, 72 h, read-out: Stage 5 Gametocyte EC50; for EC50 fold shift compared to asexual stage: Stage 5 Gametocyte EC50: gametocyte EC50 / 3D7 EC50
How it was run: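 Synchronized P. falciparum NF54 stage V gametocytes were exposed to compound (1.25 μM or 12.5 μM) for 72 h. MitoTracker Red CMXRos (500 nM final) was then added with saponin to lyse RBCs, and plates were imaged by high-content fluorescence. The readout was the number of metabolically active gametocytes per well.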

P. falciparum strain 3D7 = experiment: Asexual blood stage 3H-hypoxanthine incorporation assay, 3D7; type: cell-based, Plasmodium falciparum; settings: Plasmodium falciparum, 3D7, asexual stage, P. falciparum 3D7; read-out: 3D7 EC50
Description: The 48-h assay was carried out in a 96-well format following standard methods using the ^3H-hypoxanthine incorporation assay. The raw EC50 values corresponding to this assay can be found in Supplementary Data 3. Briefly, this assay relies on the parasite incorporation of labelled hypoxanthine that is proportional to P. falciparum growth. A culture of parasitized RBCs (0.5% parasitemia with a percentage of ring stage higher than 70% of total parasitemia, 2.0% haematocrit) in RPMI-1640, […] and 5 μM hypoxanthine was exposed to drug serial dilutions. Plates were incubated for 24 h at 37 °C, 5% CO2, 5% O2 and 90% N2. After 24 h of incubation, ^3H-hypoxanthine was added and plates were incubated for an additional 24-h period. After that, parasites were harvested on a glass fibre filter using a TOMTEC Cell Harvester 96. Filters were dried and melt-on scintillator sheets were used to determine the incorporation of ^3H-hypoxanthine. Radioactivity was measured using a microbeta counter. Data were normalized using the incorporation of the positive (parasitized RBCs without drug) and negative (same culture with artesunate at 2 μM) controls. All assays were conducted in triplicate using three independently grown cultures, and EC50 values were determined using the XLfit add-in module for Excel (version 2.3.1) from Grafit (version 5.3.1.3), where parameter h is the assay hill slope, x is the compound concentration and y is the inhibition of growth effect. The XLfit equation is: […]

3D7 = experiment: Cross-resistance EC50 assay, 3D7 parent / sensitive strain; type: cell-based; settings: Plasmodium falciparum
How it was run: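 P. falciparum asexual blood-stage proliferation, parent/sensitive strain of each resistant clone; 48-h assay with rings (0.5% parasitemia, 2.0% haematocrit) in RPMI-1640/5% AlbuMAX, ^3H-hypoxanthine added at 24 h, normalized to no-drug and 2 μM artesunate controls; alternatively 72-h SYBR Green assay (0.3% parasitemia, 4% haematocrit). EC50s from triplicate fits.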

[2] = SYBR green 72 hour assay, asynchronized parasites, 96-well or 1536-well format, 3D7 parent, read-out: 3D7 (PARENT) EC50 (µM) Average EC50
[3] = SYBR green 72 hour assay, synchronized parasites, 384-well format, strain 3D7 (parent), read-out: 3D7 (PARENT) Average EC50
[4] = hypoxanthine 48-hour assay, synchronized parasites, 96-well format, strain 3D7 (parent), read-out: 3D7 (PARENT) Average EC50
[5] = hypoxanthine 48-hour assay, synchronized parasites, 96-well format, strain 3D7-C9-WT (parent of PfATP4 Mut3), read-out: 3D7-C9-WT (PARENT) Average EC50

CC(C)(C)OC(=O)N1CCN(c2ccccc2NC(=O)c2cccc(C(F)(F)F)c2Oc2ccc(F)cc2)CC1 [MMV030666]
EC50 [1]: 993 nM
EC50 fold shift compared to asexual stage: Stage 5 Gametocyte EC50 [1]: 2.04
EC50 (P. falciparum strain 3D7): 486 nM
EC50 (3D7; [2]): 0.122 µM
EC50 (3D7; [3]): 0.627 µM
EC50 (3D7; [4]): 0.494 µM
EC50 (3D7; [5]): 0.333 µM

COc1ccc(N2CCN(C(CNC(=O)C3CCCCC3)c3ccc4c(c3)OCO4)CC2)cc1 (stereo not shown) [MMV019662]
EC50 [1]: 3680 nM
EC50 fold shift compared to asexual stage: Stage 5 Gametocyte EC50 [1]: 10.82
EC50 (P. falciparum strain 3D7): 340 nM
EC50 (3D7; [2]): 0.358 µM
EC50 (3D7; [3]): 0.98 µM
EC50 (3D7; [4]): 0.34 µM
EC50 (3D7; [5]): 0.81 µM

Cc1nc2ccc3ccc(CNc4ccc(C(=O)CC(CCC(=O)O)C(=O)O)cc4)cc3c2c(=O)[nH]1.Cl (stereo not shown) [MMV027634]
EC50 [1]: > 12500 nM
EC50 fold shift compared to asexual stage: Stage 5 Gametocyte EC50 [1]: > 543
EC50 (P. falciparum strain 3D7): 23 nM
EC50 (3D7; [2]): 0.148 µM
EC50 (3D7; [3]): 0.029 µM
EC50 (3D7; [4]): 0.025 µM
EC50 (3D7; [5]): 0.042 µM

CCCCCCCN(Cc1ccc(OC(C)(C)C(=O)OCC)cc1)C(=O)Nc1ccc(Cl)cc1OCC [MMV021735]
EC50 [1]: > 11600 nM
EC50 fold shift compared to asexual stage: Stage 5 Gametocyte EC50 [1]: > 32
EC50 (P. falciparum strain 3D7): 383 nM
EC50 (3D7; [2]): 0.054 µM
EC50 (3D7; [3]): 0.383 µM
EC50 (3D7; [4]): 0.459 µM
EC50 (3D7; [5]): 0.543 µM
